Tested on: active dry yeast “z”
Experiment: Fermentation of very high gravity corn mash with nutrient supplements (Example 4)
Type: cell-based, Saccharomyces cerevisiae
Method: The effects of the optimized defined urea plus salts-based nutrient supplement, i.e., defined yeast food, developed in Example 3 for corn mash fermentations, were assessed by comparisons of fermentation rates and ethanol production in normal gravity corn mashes and very high gravity corn mashes that were (a) supplemented with 16 mM urea only, or (b) yeast extract, or (c) supplemented with 16 mM urea plus the defined yeast food from Example 3 which in this set of studies, contained 1.6 g/L (NH4)2HPO4, 0.32 g/L (NH4)2SO4, 0.049 g/L MgSO4.7H2O, and 0.273 mg/L ZnSO4.7H2O.
Normal density corn mashes were prepared as described in Example 1 and were determined to contain about 18-20 g dissolved solids per 100 mL mash as determined by density meter analysis. […] The mash thus prepared contained 30-32 g of dissolved solids/100 mL as determined by density meter analysis. […]
Each study was commenced by removing fermentors containing either normal gravity corn mash or very high gravity corn mash from 4° C. storage, connecting them to 30° C. water bath circulators and continually mixing the corn mash contents therein until the temperature of each mash was 30° C. […] Fermentation performance in all treatments was assessed by repeated sampling and analyses of the mashes during the fermentation periods as described in Example 1.

SMILES: NC(N)=O [urea]
- time after which fermentation became “stuck”: 72 h

From patent US20070190628A1, “Yeast food composition for fuel ethanol production” (priority 2006, published 2007)
